Measured values taken from patent US20230243856A1, “IDENTIFYING DIRECT ORAL FACTOR XA INHIBITORS” (Instrumentation Laboratory Company, priority 2022, published 2023).

Test system: clotting of a test sample, such as whole blood
Test: low tissue factor clotting assay with a reagent of diluted tissue factor, CaCl2 and polycation heparin inhibitor (polybrene)
Type: biochemical
Conditions: for relationship between TTC and concentration in the sample: range shown between 0 and 500 ng/mL, TTC in seconds; for relationship between TTC and concentration in the sample / concentration in the test sample at a measured clotting time of 400 seconds: FIG. 2 / FIG. 3; for concentration in the test sample at a measured clotting time of 400 seconds: read from plot of TTC versus concentration; for plot of TTC versus concentration with 1 IU UFH or 0 IU UFH in the test sample: test sample with 1 IU unfractionated heparin or no heparin, region 400 / 500 of FIG. 4 / FIG. 5
Description: The clotting assay uses a reagent to initiate the clotting of a test sample, such as whole blood or a sample derived from whole blood (e.g., plasma). A low tissue factor assay is an example of a clotting assay. […] The low tissue factor assay monitors the clotting of a mixture of the test sample and the reagent and determines clotting parameters based on that clotting. The TTC parameters can be different on different clinical analyzer systems and for different low tissue factor assays. For example, TTC parameter(s) for low tissue factor assays performed using the ROTEM® sigma and the RQTEM® delta systems by Werfen® include clotting time (CT) (where CT is the latency time from adding reagent to sample until the clot starts to form); TTC parameter(s) for low tissue factor assays performed using the TEG® 6s system by Haemonetics® include reaction time (R) and clotting time (CT); and TTC parameter(s) for low tissue factor assays performed using the Quanta® system by the Hemoscnics® system include dot time (CT). An example of the reagent that may be used in the low tissue factor assay (referred to below as “the assay”) to initiate clotting of the test sample includes the following constituents: a diluted tissue factor (“the tissue factor”), calcium chloride (CaCl2), and a heparin inhibitor. The tissue factor activates the extrinsic pathway; the heparin inhibitor reduces or eliminates the sensitivity of the assay to heparin or at least certain concentrations of heparin in the test sample; and CaCl2 recalcifies the sample as required for blood clotting to occur. An example of a type of heparin inhibitor that may be used in the reagent is polycation. An example of a polycation that may be used in the reagent includes, but is not limited to, polybrene. […] In this example, process 100 includes receiving (100a) a test sample having an unknown anti-Xa DOAC at an unknown concentration. The test sample may be received in a diagnostic testing/clinical analyzer system or a manual testing system. The test sample may be any of the types of test samples described herein. The system performs a low tissue factor assay on the test sample. This includes causing the test sample to contact a reagent such as the example reagents described herein. The test sample mixes (100b) with the reagent. The mixing may be performed automatically or manually by physically moving the test sample and the reagent using a mixing element mechanism, e.g., agitation, flow, or the like. The resulting liquid, which is a mixture of the sample and the reagent, begins to clot. The clotting parameters(s), such as TTC, CFT, and/or amplitudes, of clots formed from the liquid may be measured (100c) by the diagnostic testing/clinical analyzer system or manually. The plots of FIGS. 4 to 6, which are described below, are associated with various experiments using the low tissue factor assay and the example reagents described herein containing the tissue factor, CaCl2, and a heparin inhibitor, such as polybrene or other polycation.

Row | Compound | relationship between TTC and concentration in the sample | concentration in the test sample at a measured clotting time of 400 seconds | plot of TTC versus concentration with 1 IU UFH or 0 IU UFH in the test sample
1 | COc1ccc(-n2nc(C(N)=O)c3c2C(=O)N(c2ccc(N4CCCCC4=O)cc2)CC3)cc1 [apixaban] | linear | about 160 ng/mL | substantially linear
2 | O=C(NC[C@H]1CN(c2ccc(N3CCOCC3=O)cc2)C(=O)O1)c1ccc(Cl)s1 [rivaroxaban] | linear | about 50 ng/mL | substantially linear
